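Protocol summary: plate cells (96-well), add compound at 5 concentrations, incubate 48 h, interpolate endpoints linearly. GI50: concentration for 50% inhibition of growth.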 Active and inactive are the calls of the source. Cut-off read from the data, not from the text of the source: active = GI50 up to about 1.1 µM and inactive = higher. Bounds are passed on as bounds.

Results on 18 compounds are retold here after ChEMBL document CHEMBL1201862, “PubChem BioAssay data set” (2004).

Test systems include SNB-78; XF498; RXF 631; DU-145; MDA-MB-231; BT-549; T47D; PC-3.
Common to all, as to test: NCI tumour cell line growth inhibition, 48 h

Turning to `c1ccc(-n2cnnc2-c2nsc3ccccc23)cc1`, the GI50 with SNB-78 is > 100 µM (inactive).

Turning to `CCCN1C(=O)/C(=C(/O)C(=O)OCC)C(c2ccc(OC)c(OC)c2)C1=O` (stereo not drawn), the GI50 in the test on SNB-78 and in the test with XF498 was > 100 µM (inactive) in each case.

Turning to `COc1ccccc1OCC(COC(=O)Nc1ccccc1)OC(=O)Nc1ccccc1` (stereo not drawn), the GI50 in the test with SNB-78 was 43.3 µM (inactive); in the test with XF498 it was 60.4 µM (inactive).

For `COc1ccc(N2C(=O)/C(=C(\C)c3cc4ccccc4oc3=O)N=C2c2cc([N+](=O)[O-])ccc2Cl)cc1`, the GI50 in the test with RXF 631 was 36.6 µM (inactive); in the test with SNB-78 it was 24.4 µM (inactive).

Turning to `COc1ccc(/C=c2\sc3n(c2=O)CCN=3)cc1`, the GI50 in the test on SNB-78 is > 100 µM (inactive).

For `C/C=C1\C[C@@H]2C(OC)Nc3cc(O)c(OC)cc3C(=O)N2C1` (stereo partly drawn), the GI50 with DU-145 is < 0.01 µM (active); with MDA-MB-231, < 0.01 µM (active); with BT-549, 0.00437 µM (active); with RXF 631, 0.00859 µM (active); with T47D it was 0.0141 µM (active); in the test with PC-3, < 0.01 µM (active).

In the case of `CCOC(=O)c1ccc(N(CCOS(C)(=O)=O)CCOS(C)(=O)=O)cc1`, the GI50 with DU-145 was 21.8 µM (inactive); in the test on MDA-MB-231 it was 91.2 µM (inactive); in the test with BT-549, 40.6 µM (inactive); in the test on T47D, 43 µM (inactive); in the test with PC-3, 50.7 µM (inactive).

As for `O=c1ccn([C@@H]2C=C(CO)[C@@H](O)[C@H]2O)c(=O)[nH]1`, the GI50 with XF498 was < 0.0625 µM (active).

`O=c1cnn(C/C=C/CBr)c(=O)[nH]1`: the GI50 was 24.2 µM (inactive) in the test on DU-145; 21.9 µM (inactive) with MDA-MB-231; 0.527 µM (active) with BT-549; 19.1 µM (inactive) in the test on T47D; 14.9 µM (inactive) in the test on PC-3.

Consider `CC1=NCCc2cc3[nH]c4ccccc4c3cc21`, for which the GI50 was 28.2 µM (inactive) in the test on SNB-78 and 10.9 µM (inactive) in the test with XF498.

On to `C[C@H]1O[C@@H](O[C@H]2[C@@H](O)C[C@H](O[C@H]3[C@@H](O)C[C@H](O[C@H]4CC[C@@]5(C)[C@H](CC[C@@H]6[C@@H]5CC[C@]5(C)[C@@H](C7=CC(=O)OC7)CC[C@]65O)C4)O[C@@H]3C)O[C@@H]2C)C[C@H](O)[C@@H]1O` [DIGITOXIN], for which the figures for the GI50 in the test with MDA-MB-231, in the test with BT-549 and in the test with PC-3 were 0.129 µM (active), 0.0189 µM (active) and < 0.033 µM (active), respectively.

As to `COc1cccc2c1C(=O)c1c(O)c3c(c(O)c1C2=O)C[C@@](O)(C(=O)CN1CCOCC1)C[C@@H]3OC1CC(N)C(O)C(C)O1` (stereo partly drawn), the GI50 in the test on XF498 is 2.45 µM (inactive).

`C=C1C(=O)[C@@]23CC[C@H]4[C@@](C)(CCC[C@@]4(C)C(=O)OC)[C@@H]2CC[C@]1(O)C3`: the GI50 in the test with XF498 was 1.75 µM (inactive).

With `CN1COCN/C1=N/C#N`, the GI50 with RXF 631, in the test on SNB-78 and in the test on XF498 was > 100 µM (inactive) throughout.

In the case of `O=C1C2=C(C3=NCCc4c[nH]c1c43)c1c(cc(Br)c(O)c1Br)CCN2`, the values for the GI50 with SNB-78 and in the test on XF498 were 5.64 µM (inactive) and 13.9 µM (inactive), respectively.

For `CCOP(=O)(COCCn1ncc(=O)[nH]c1=O)OCC`, the GI50 in the test on DU-145, in the test on MDA-MB-231, in the test on BT-549, with T47D and in the test on PC-3 was > 100 µM (inactive) each time.

In the case of `NCCCN(CCCN)CCN(CCN(CCCN)CCCN)CCN(CCCN)CCCN`, the GI50 in the test on DU-145 is > 100 µM (inactive); in the test on MDA-MB-231 it was > 100 µM (inactive); in the test on T47D, 58.3 µM (inactive); in the test on PC-3, > 100 µM (inactive).

For the compound `CCOC(=O)CN(CC)C(=O)NC12CC3CC(CC(C3)C1)C2`, the GI50 in the test with SNB-78 was 240 µM (inactive); in the test on XF498, 125 µM (inactive).
